This data set is described as follows: in vitro. The data set is classed as in vitro ADME, human. How it is done:
For several compounds only human liver microsomal stability was tested. […] The microsomal assays were carried out with and without the addition of NADPH at a final concentration of 1 mM. For negative control samples, NADPH reagent was not added. […] Note that compounds undergo only Phase I metabolism in liver microsomes.

[1] abbreviates: human liver microsomes 0.5 mg/mL, with NADPH, compound 0.5 μM, 37° C., read-out: Human Liver Microsomal Stability t1/2.
[2] abbreviates: human liver microsomes 0.5 mg/mL, with NADPH, compound 0.5 μM, read-out: Human Liver Microsomal Stability CLint (uL/min/mg liver) (converted).
Where [3] appears, read: human liver microsomes, no NADPH, compound 0.5 μM.

From US20250034201A1, “PRODRUGS OF GANAXOLONE” (priority 2022, published 2025) come the findings set out here.

Each structure is given as a SMILES string. Where two headings read alike, the source gives them in different places.

`COC(=O)[C@@H](NCC(=O)O[C@]1(C)CC[C@@]2(C)[C@@H](CC[C@@H]3[C@@H]2CC[C@]2(C)[C@@H](C(C)=O)CC[C@@H]32)C1)C(C)C` [Compound 108]: the “Comments: production of GNX (ganaxolone) in human liver microsomes” value (shortened to “Comments: production of GNX (ganaxolone)”) (human liver microsomes) is “GNX not produced in human”. The half-life under setting [1] came to 12.2 min. Further, under setting [2], the microsomal CLint was 114 µL/min/mg. The “Human Liver Microsomal Stability no NADPH, % remain 1 h” value under setting [3] worked out at 98%.
The corresponding values for `COC(=O)CNCC(=O)O[C@]1(C)CC[C@@]2(C)[C@@H](CC[C@@H]3[C@@H]2CC[C@]2(C)[C@@H](C(C)=O)CC[C@@H]32)C1` [Compound 110] are “In human GNX not produced”, 4.15 min, 344 µL/min/mg and 1.5%.
Consider `CC(=O)[C@H]1CC[C@H]2[C@@H]3CC[C@H]4C[C@](C)(OC(=O)CNC(=O)CN5CCOCC5)CC[C@]4(C)[C@H]3CC[C@]12C` [Compound 112], for which the “Comments: production of GNX (ganaxolone)” value (human liver microsomes) is “In human no GNX produced”. Also, the half-life under setting [1] is 46.7 min. For the same molecule, the microsomal CLint under setting [2] was 29.6 µL/min/mg. In addition, under setting [3], the “Human Liver Microsomal Stability no NADPH, % remain 1 h” value came out at 98.6%.
Take `CNCC(=O)O[C@]1(C)CC[C@@]2(C)[C@@H](CC[C@@H]3[C@@H]2CC[C@]2(C)[C@@H](C(C)=O)CC[C@@H]32)C1` [Compound 114]: the half-life under setting [1] came to 277 min. For the same molecule, under setting [2], the microsomal CLint was 5 µL/min/mg. Further, the “Human Liver Microsomal Stability no NADPH, % remain 1 h” value under setting [3] turned out to be 99.5%.
Regarding `CC(=O)[C@H]1CC[C@H]2[C@@H]3CC[C@H]4C[C@](C)(OC(=O)CN(C)C(=O)CN5CCOCC5)CC[C@]4(C)[C@H]3CC[C@]12C` [Compound 115], the “Comments: production of GNX (ganaxolone)” value (human liver microsomes) is “In human no GNX produced”. The half-life under setting [1] amounted to 13.8 min. Moreover, under setting [2], the microsomal CLint is 100 µL/min/mg. Also, the “Human Liver Microsomal Stability no NADPH, % remain 1 h” value under setting [3] stood at 99%.
In the same order, the values of `CC(=O)[C@H]1CC[C@H]2[C@@H]3CC[C@H]4C[C@](C)(OC(=O)CNC(=O)CNC(=O)[C@@H](N)C(C)C)CC[C@]4(C)[C@H]3CC[C@]12C` [Compound 122] are “In human no GNX produced”, 345 min, 4.02 µL/min/mg and 99%.
The corresponding values for `CC(=O)[C@H]1CC[C@H]2[C@@H]3CC[C@H]4C[C@](C)(OC(=O)CNCC(=O)O)CC[C@]4(C)[C@H]3CC[C@]12C` [Compound 124] are “In human small amount of GNX produced”, 532 min, 2.61 µL/min/mg and 99%.
As for `COC(=O)C(C)(C)NCC(=O)O[C@]1(C)CC[C@@]2(C)[C@@H](CC[C@@H]3[C@@H]2CC[C@]2(C)[C@@H](C(C)=O)CC[C@@H]32)C1` [Compound 125], the half-life under setting [1] stood at 3.9 min. For the same molecule, the microsomal CLint under setting [2] was 354 µL/min/mg. In addition, the “Human Liver Microsomal Stability no NADPH, % remain 1 h” value under setting [3] was 1%.
On to `CC(=O)[C@H]1CC[C@H]2[C@@H]3CC[C@H]4C[C@](C)(OC(=O)CN5CCC[C@H]5C(=O)OCc5ccccc5)CC[C@]4(C)[C@H]3CC[C@]12C` [Compound 128], for which, where the note is “human liver microsomes”, the “Comments: production of GNX (ganaxolone)” value is “In human no GNX produced”. Also, the half-life under setting [1] came to 9 min. Besides, the microsomal CLint under setting [2] is 153 µL/min/mg. Under setting [3], the “Human Liver Microsomal Stability no NADPH, % remain 1 h” value was found to be 20%.
The corresponding values for `CC(=O)[C@H]1CC[C@H]2[C@@H]3CC[C@H]4C[C@](C)(OC(=O)CN[C@@H](C)C(=O)O)CC[C@]4(C)[C@H]3CC[C@]12C` [Compound 131] are “In human no GNX produced”, 207 min, 6.7 µL/min/mg and 82%.
In the case of `CC(=O)[C@H]1CC[C@H]2[C@@H]3CC[C@H]4C[C@](C)(OC(=O)CNC(C)(C)CO)CC[C@]4(C)[C@H]3CC[C@]12C` [Compound 132], under “human, microsomes”, the half-life worked out at 11.7 min; the microsomal CLint turned out to be 118 µL/min/mg; the “Human Liver Microsomal Stability no NADPH, % remain 1 h” value is given as 1%.
In the same order, the values of `CC(=O)[C@H]1CC[C@H]2[C@@H]3CC[C@H]4C[C@](C)(OC(=O)CNC(C)(C)COC(=O)C(C)C)CC[C@]4(C)[C@H]3CC[C@]12C` [Compound 135] are 3.6 min, 385 µL/min/mg and 1.3%.
On to `CC(=O)[C@H]1CC[C@H]2[C@@H]3CC[C@H]4C[C@](C)(OC(=O)CNC(C)(C)COC(=O)CN5CCOCC5)CC[C@]4(C)[C@H]3CC[C@]12C` [Compound 136], for which the half-life under setting [1] was determined as 3 min. Further, under setting [2], the microsomal CLint was 457 µL/min/mg. Moreover, under setting [3], the “Human Liver Microsomal Stability no NADPH, % remain 1 h” value is reported as 0.5%.
With `CC(=O)[C@H]1CC[C@H]2[C@@H]3CC[C@H]4C[C@](C)(OC(=O)CN5CCC[C@H]5C(=O)O)CC[C@]4(C)[C@H]3CC[C@]12C` [Compound 137], the “Comments: production of GNX (ganaxolone)” value (human liver microsomes) is recorded as “In human no GNX produced”. Also, the half-life under setting [1] was determined as 908 min. In addition, the microsomal CLint under setting [2] is 1.52 µL/min/mg. Moreover, the “Human Liver Microsomal Stability no NADPH, % remain 1 h” value under setting [3] worked out at 95%.
For the molecule `CC(=O)[C@H]1CC[C@H]2[C@@H]3CC[C@H]4C[C@](C)(OC(=O)CNCC(C)(C)N)CC[C@]4(C)[C@H]3CC[C@]12C` [Compound 138], where the note is “human liver microsomes”, the “Comments: production of GNX (ganaxolone)” value was “In human small amount of GNX produced”. Moreover, under setting [1], the half-life was found to be 33.2 min. Also, the microsomal CLint under setting [2] is 41.8 µL/min/mg. Under setting [3], the “Human Liver Microsomal Stability no NADPH, % remain 1 h” value was found to be 95.3%.
With `CC(=O)[C@H]1CC[C@H]2[C@@H]3CC[C@H]4C[C@](C)(OC(=O)CNCC(C)(C)O)CC[C@]4(C)[C@H]3CC[C@]12C` [Compound 140], the half-life under setting [1] turned out to be 39.1 min. Also, under setting [2], the microsomal CLint was 35.5 µL/min/mg. The “Human Liver Microsomal Stability no NADPH, % remain 1 h” value under setting [3] came to 99%.
On to `CC(=O)[C@H]1CC[C@H]2[C@@H]3CC[C@H]4C[C@](C)(OC(=O)CNC(=O)C(C)(C)O)CC[C@]4(C)[C@H]3CC[C@]12C` [Compound 141], for which the “Comments: production of GNX (ganaxolone)” value (human liver microsomes) is given as “In human no GNX produced”. Also, under “human, microsomes”, the half-life was determined as 38.3 min; the microsomal CLint was determined as 36.2 µL/min/mg; the “Human Liver Microsomal Stability no NADPH, % remain 1 h” value stood at 99.7%.
As for `CC(=O)[C@H]1CC[C@H]2[C@@H]3CC[C@H]4C[C@](C)(OC(=O)CN(CCO)CCO)CC[C@]4(C)[C@H]3CC[C@]12C` [Compound 142], for the setting “human, microsomes”, the half-life was 32.3 min; the microsomal CLint came to 42.9 µL/min/mg; the “Human Liver Microsomal Stability no NADPH, % remain 1 h” value came to 99%.
Regarding `CC(=O)[C@H]1CC[C@H]2[C@@H]3CC[C@H]4C[C@](C)(OC(=O)COC(=O)CN(C)C)CC[C@]4(C)[C@H]3CC[C@]12C` [Compound 202], under setting [1], the half-life worked out at 2.62 min. For the same molecule, the microsomal CLint under setting [2] is 529 µL/min/mg. Besides, under setting [3], the “Human Liver Microsomal Stability no NADPH, % remain 1 h” value amounted to 1.85%.
`CCOCCC(=O)OCC(=O)O[C@]1(C)CC[C@@]2(C)[C@@H](CC[C@@H]3[C@@H]2CC[C@]2(C)[C@@H](C(C)=O)CC[C@@H]32)C1` [Compound 203]: the half-life under setting [1] was found to be 2.24 min. Besides, the microsomal CLint under setting [2] was 618 µL/min/mg. Moreover, under setting [3], the “Human Liver Microsomal Stability no NADPH, % remain 1 h” value is listed as 0.79%.
Take `COCCOCC(=O)OCC(=O)O[C@]1(C)CC[C@@]2(C)[C@@H](CC[C@@H]3[C@@H]2CC[C@]2(C)[C@@H](C(C)=O)CC[C@@H]32)C1` [Compound 204]: under setting [1], the half-life was 4.12 min. Further, the microsomal CLint under setting [2] was 337 µL/min/mg. Under setting [3], the “Human Liver Microsomal Stability no NADPH, % remain 1 h” value was determined as 10.5%.
In the case of `COCCOCCOCC(=O)OCC(=O)O[C@]1(C)CC[C@@]2(C)[C@@H](CC[C@@H]3[C@@H]2CC[C@]2(C)[C@@H](C(C)=O)CC[C@@H]32)C1` [Compound 205], under setting [1], the half-life is 3.58 min. The microsomal CLint under setting [2] is 387 µL/min/mg. In addition, the “Human Liver Microsomal Stability no NADPH, % remain 1 h” value under setting [3] came to 5.7%.
The corresponding values for `CC(=O)[C@H]1CC[C@H]2[C@@H]3CC[C@H]4C[C@](C)(OC(=O)COC(=O)[C@H](C)N5CCOCC5)CC[C@]4(C)[C@H]3CC[C@]12C` [Compound 211] are 10.5 min, 132 µL/min/mg and 27%.
As to `CC(=O)[C@H]1CC[C@H]2[C@@H]3CC[C@H]4C[C@](C)(OC(=O)COC(=O)[C@@H](C)N5CCOCC5)CC[C@]4(C)[C@H]3CC[C@]12C` [Compound 212], the “Comments: production of GNX (ganaxolone)” value (human liver microsomes) was “In human small amount of GNX produced”. Moreover, for the setting “human, microsomes”, the half-life was found to be 14.3 min; the microsomal CLint worked out at 96.9 µL/min/mg; the “Human Liver Microsomal Stability no NADPH, % remain 1 h” value stood at 99%.
With `CC(=O)[C@H]1CC[C@H]2[C@@H]3CC[C@H]4C[C@](C)(OC(=O)COC(=O)C(C)(C)N5CCOCC5)CC[C@]4(C)[C@H]3CC[C@]12C` [Compound 213], under “human liver microsomes”, the “Comments: production of GNX (ganaxolone)” value is “In human small amount of GNX produced”. In addition, the half-life under setting [1] came out at 27.3 min. In addition, the microsomal CLint under setting [2] was 50.7 µL/min/mg. For the same molecule, the “Human Liver Microsomal Stability no NADPH, % remain 1 h” value under setting [3] was 98%.
